Laboratory results: PubChem BioAssay (NCI)
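Results reflect a 48-hour exposure of cells in 96-well plates to compound at five concentrations. GI50: concentration for 50% inhibition of growth. TGI denotes the concentration required for complete inhibition of growth.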

Tests used:
Assay in all cases: DTP human tumour cell line panel, 48 h
EKVX NSCLC = tested on: EKVX NSCLC
A498 renal = tested on: A498 renal
SN12C renal = tested on: SN12C renal
BT-549 breast = tested on: BT-549 breast
OVCAR-3 ovarian = tested on: OVCAR-3 ovarian
OVCAR-4 ovarian = tested on: OVCAR-4 ovarian
UO-31 renal = tested on: UO-31 renal
OVCAR-5 ovarian = tested on: OVCAR-5 ovarian
LOX IMVI melanoma = tested on: LOX IMVI melanoma
OVCAR-8 ovarian = tested on: OVCAR-8 ovarian

Row | Structure (SMILES) | GI50 (EKVX NSCLC) [µM] | TGI (EKVX NSCLC) [µM] | GI50 (A498 renal) [µM] | TGI (A498 renal) [µM] | GI50 (SN12C renal) [µM] | TGI (SN12C renal) [µM] | GI50 (BT-549 breast) [µM] | TGI (BT-549 breast) [µM] | GI50 (OVCAR-3 ovarian) [µM] | TGI (OVCAR-3 ovarian) [µM] | GI50 (OVCAR-4 ovarian) [µM] | TGI (OVCAR-4 ovarian) [µM] | GI50 (UO-31 renal) [µM] | TGI (UO-31 renal) [µM] | GI50 (OVCAR-5 ovarian) [µM] | TGI (OVCAR-5 ovarian) [µM] | GI50 (LOX IMVI melanoma) [µM] | TGI (LOX IMVI melanoma) [µM] | GI50 (OVCAR-8 ovarian) [µM] | TGI (OVCAR-8 ovarian) [µM]
1 | C[C@@H]1CN2[C@H]3[C@@H]1CC[C@]31CCC(=O)O[C@]1(C)[C@@H]1CC[C@H]3CCC=C3[C@@H]12 | > 70 | > 70 | > 70 | > 70 | > 70 | > 70 | > 70 | > 70 | > 70 | > 70 | > 70 | > 70 | 43.5 | > 70 | > 70 | > 70 | > 70 | > 70 | > 70 | > 70
2 | C=C(C)[C@@H]1CC[C@]2(C)[C@H](C=CC3=C4C[C@@](C)(CO)CC[C@]4(C)CC[C@]32C)[C@@]1(C)CCCN | 1.6 | 3.1 | 1.54 | 2.9 | 1.64 | 3.15 | 1.63 | 3.07 | 1.48 | 2.85 | 1.53 | 3.09 | 1.34 | 2.65 | 1.71 | 3.09 | 1.37 | 2.7 | 2.13 | 4.61
3 | CCCCCCC1N=C(N)N=C(N)N1c1ccc(Cl)cc1 (centres undefined) | 8.7 | 45.4 | 7.05 | 24.8 | 3.76 | 16.1 | 3.37 | 18.3 | 12.2 | 32.6 | 14.4 | 60 | 57.1 | > 100 | 10.7 | > 100 | 3.87 | 14.7 | 6.43 | > 100
4 | Cc1cccnc1CNC1CC(NCc2ncccc2C)CC(NCc2ncccc2C)C1 (centres undefined) | 2.56 | 8.14 | 1.78 | 3.3 | 1.61 | 3.11 | 2.95 | 7.82 | 3.1 | 8.94 | 2.88 | 11.9 | 4.85 | 22.5 | 1.92 | 5.23 | 1.92 | 3.96 | 2.2 | 4.87
5 | CCS/C(Nc1ccccc1)=C(\C#N)C(=O)N/N=C/c1ccc(Cl)cc1Cl | 5.09 | > 100 | 1.87 | 37.8 | 6.92 | > 100 | 2.8 | > 100 | 2.8 | 10.7 | 6.57 | > 100 | 6.91 | > 100 | 8.25 | > 100 | 5.88 | > 100 | 4.81 | > 100
6 | CSc1ccc(C2=NN(C(=O)c3ccc(N)cc3)C(c3ccc(F)cc3)C2)cc1 (centres undefined) | 16.6 | 34 | 12.9 | 27.3 | 2.49 | 10.2 | 12.3 | 28.1 | 4.54 | 17.2 | 15 | 31.9 | 10.6 | 24 | 16.7 | 31.2 | 2.53 | 6.84 | 16.1 | 32.5
7 | COc1cc(C2C(C#N)=C(N)Oc3cc4c(cc32)OCO4)cc2c1OCO2 (centres undefined) | 0.594 | > 100 | 0.103 | – | 0.599 | > 100 | 1.8 | 29.5 | 0.0928 | 0.35 | 0.931 | > 100 | 0.653 | > 100 | 1.29 | > 100 | 1 | > 100 | 0.466 | > 100
